Values of other authors in patent publication US8092782B2, “Polybiotin compounds of magnetic resonance imaging and drug delivery” (priority 2003, dated 2012).

In the case of triacetyl-beta-cyclodextrin, the “solubility in water” value is listed as “insoluble”.
